Measurements published in the supplement of paper PMC11061612.

Legend:
[1] = tested on: DMS-53 (Small Cell Lung Carcinoma); assay: combination Emax (second highest fraction inhibited in the dose matrix, 72 h); higher = more inhibition; extreme values may be limits of the assay
Method in brief: (§1)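 Cell lines grown in DMEM/F12 or RPMI with 10% FBS were plated in 1536-well plates and held 24 hours at 37°C, 5% CO2 before 72 hours of exposure to two-drug dose matrices, with DMSO typically at 0.2%. CellTiter-Glo 2.0 luminescence gave viability, which was converted to inhibition. Vehicle wells were set to 0 and blank wells to 1. Combination Emax is the second-highest inhibition in the matrix, and Bliss excess is the observed combination effect minus the expected EA + EB − EA·EB, where EA and EB are the single-agent effects.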

[2] = tested on: TE-10 (Esophageal Squamous Cell Carcinoma); assay: as above
Method in brief: as §1

[3] = tested on: CESS (Acute Myeloid Leukemia); assay: as above
Method in brief: as §1

[4] = tested on: CAL-27 (Oral Cavity Carcinoma); assay: as above
Method in brief: as §1

[5] = tested on: A2780 (Ovarian Carcinoma); assay: as above
Method in brief: as §1

[6] = tested on: NCI-H2087 (Lung Adenocarcinoma); assay: as above
Method in brief: as §1

A101D (Melanoma) = assay: as above
Method in brief: as §1

[7] = tested on: MHH-ES-1 (Ewing's Sarcoma); assay: as above
Method in brief: as §1

[8] = tested on: KYSE-220 (Esophageal Squamous Cell Carcinoma); assay: as above
Method in brief: as §1

[9] = tested on: JVM-2 (B-Cell Non-Hodgkin's Lymphoma); assay: as above
Method in brief: as §1

769-P (Kidney Carcinoma) = assay: as above
Method in brief: as §1

[10] = tested on: TE-10 (Esophageal Squamous Cell Carcinoma); assay: Bliss excess, mean over the matrix (fraction); higher = more synergy
Method in brief: as §1
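Throughout, for Bliss excess, mean over the matrix: after 72 h of two-drug dosing.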

| SMILES | combination Emax [1] | combination Emax [2] | combination Emax [3] | combination Emax [4] | combination Emax [5] | combination Emax [6] | combination Emax (A101D (Melanoma)) | combination Emax [7] | combination Emax [8] | combination Emax [9] | combination Emax (769-P (Kidney Carcinoma)) | Bliss excess [10] |
| --- | --- | --- | --- | --- | --- | --- | --- | --- | --- | --- | --- | --- |
| COc1cccc(OCCCN)c1-c1cc(Nc2cnc(C#N)cn2)n[nH]1 [Prexasertib] + C=CCn1c(=O)c2cnc(Nc3ccc(N4CCN(C)CC4)cc3)nc2n1-c1cccc(C(C)(C)O)n1 [AZD1775] (first compound max 1 µM, partner max 1 µM) | 0.473 | 0.976 | 0.966 | 0.777 | 0.945 | 0.804 | 0.832 | 0.861 | 0.973 | 0.942 | 0.867 | 0.0262 |
| COc1cccc(OCCCN)c1-c1cc(Nc2cnc(C#N)cn2)n[nH]1 [Prexasertib] + CCc1c2c(nc3ccc(O)cc13)-c1cc3c(c(=O)n1C2)COC(=O)[C@]3(O)CC [SN-38] (first compound max 1 µM, 7x7, partner max 0.3 µM) | 0.878 | 0.939 | 0.983 | 0.948 | 0.857 | 0.918 | 0.899 | 1 | 0.96 | 0.985 | 0.789 | -0.0428 |
| COc1cccc(OCCCN)c1-c1cc(Nc2cnc(C#N)cn2)n[nH]1 [Prexasertib] + CN(C)CCCOc1ccc(-c2ccc3ncc4c(c3c2)n(C2CCOCC2)c(=O)n4C)cn1 [AZD0156] (first compound max 1 µM, 7x7, partner max 1 µM) | 0.275 | 0.938 | 0.975 | 0.421 | 0.673 | 0.761 | 0.737 | 0.722 | 0.925 | 0.949 | 0.898 | -0.0174 |
| COc1cccc(OCCCN)c1-c1cc(Nc2cnc(C#N)cn2)n[nH]1 [Prexasertib] + C[C@@H]1COCCN1C2=NC(=NC(=C2)C3(CC3)[S@](=N)(=O)C)C4=C5C=CNC5=NC=C4 [AZD6738] (first compound max 1 µM, 7x7, partner max 10 µM) | 0.272 | 0.945 | 0.978 | 0.504 | 0.825 | 0.797 | 0.773 | 0.693 | 0.939 | 0.949 | 0.837 | -0.0244 |
| COc1cccc(OCCCN)c1-c1cc(Nc2cnc(C#N)cn2)n[nH]1 [Prexasertib] + Cc1cc2ncnn2cc1Nc1ncc2c(n1)n(C1CCOCC1)c(=O)n2C [AZD7648] (first compound max 1 µM, 7x7, partner max 10 µM) | 0.293 | 0.938 | 0.971 | 0.426 | 0.737 | 0.801 | 0.762 | 0.742 | 0.935 | 0.956 | 0.819 | -0.0604 |
| COc1cccc(OCCCN)c1-c1cc(Nc2cnc(C#N)cn2)n[nH]1 [Prexasertib] + O=C(c1cc(Cc2n[nH]c(=O)c3ccccc23)ccc1F)N1CCN(C(=O)C2CC2)CC1 [Olaparib] (first compound max 1 µM, 7x7, partner max 10 µM) | 0.314 | 0.892 | 0.972 | 0.78 | 0.71 | 0.784 | 0.788 | 0.954 | 0.947 | 0.946 | 0.751 | -0.105 |
| CCc1c2c(nc3ccc(O)cc13)-c1cc3c(c(=O)n1C2)COC(=O)[C@]3(O)CC [SN-38] + CN(C)CCCOc1ccc(-c2ccc3ncc4c(c3c2)n(C2CCOCC2)c(=O)n4C)cn1 [AZD0156] (first compound max 0.3 µM, 7x7, partner max 1 µM) | 0.729 | 0.725 | 0.984 | 0.905 | 0.726 | 0.921 | 0.674 | 1 | 0.947 | 0.949 | 0.716 | 0.0444 |
| CC(=O)Nc1cccc(-n2c(=O)n(C3CC3)c(=O)c3c(Nc4ccc(I)cc4F)n(C)c(=O)c(C)c32)c1 [Trametinib] + Cc1nc(-c2cn3c(n2)-c2ccc(-c4cnn(C(C)(C)C(N)=O)c4)cc2OCC3)n(C(C)C)n1 [Taselisib] (first compound max 1 µM, 7x7, partner max 10 µM) | 0.294 | 0.965 | 0.66 | 0.946 | 0.972 | 0.639 | 0.923 | 0.563 | 0.958 | 0.746 | 0.681 | 0.127 |
| CC1(C)CCC(CN2CCN(c3ccc(C(=O)NS(=O)(=O)c4ccc(NCC5CCOCC5)c([N+](=O)[O-])c4)c(Oc4cnc5[nH]ccc5c4)c3)CC2)=C(c2ccc(Cl)cc2)C1 [Venetoclax] + C1CN(CCC1(C(=O)N[C@@H](CCO)C2=CC=C(C=C2)Cl)N)C3=NC=NC4=C3C=CN4 [Capivasertib] (first compound max 1 µM, 7x7, partner max 3 µM) | 0.361 | 0.506 | 0.467 | 0.261 | 0.61 | 0.123 | 0.283 | 0.323 | 0.223 | 0.661 | 0.241 | -0.04 |
| CC1(C)CCC(CN2CCN(c3ccc(C(=O)NS(=O)(=O)c4ccc(NCC5CCOCC5)c([N+](=O)[O-])c4)c(Oc4cnc5[nH]ccc5c4)c3)CC2)=C(c2ccc(Cl)cc2)C1 [Venetoclax] + C=CCn1c(=O)c2cnc(Nc3ccc(N4CCN(C)CC4)cc3)nc2n1-c1cccc(C(C)(C)O)n1 [AZD1775] (first compound max 1 µM, partner max 1 µM) | 0.694 | 0.856 | 0.966 | 0.328 | 0.927 | 0.401 | 0.736 | 0.776 | 0.832 | 0.97 | 0.744 | 0.0301 |
| CC1(C)CCC(CN2CCN(c3ccc(C(=O)NS(=O)(=O)c4ccc(NCC5CCOCC5)c([N+](=O)[O-])c4)c(Oc4cnc5[nH]ccc5c4)c3)CC2)=C(c2ccc(Cl)cc2)C1 [Venetoclax] + CCN(CCO)CCCOc1ccc2c(Nc3cc(CC(=O)Nc4cccc(F)c4)[nH]n3)ncnc2c1 [AZD2811] (first compound max 1 µM, 7x7, partner max 1 µM) | 0.482 | 0.59 | 0.615 | 0.43 | 0.472 | 0.176 | 0.477 | 0.657 | 0.299 | 0.681 | 0.204 | -0.0502 |
| CC1(C)CCC(CN2CCN(c3ccc(C(=O)NS(=O)(=O)c4ccc(NCC5CCOCC5)c([N+](=O)[O-])c4)c(Oc4cnc5[nH]ccc5c4)c3)CC2)=C(c2ccc(Cl)cc2)C1 [Venetoclax] + CN(C)CCCOc1ccc(-c2ccc3ncc4c(c3c2)n(C2CCOCC2)c(=O)n4C)cn1 [AZD0156] (first compound max 1 µM, 7x7, partner max 1 µM) | 0.44 | 0.674 | 0.142 | 0.173 | 0.491 | 0.149 | 0.365 | 0.487 | 0.195 | 0.34 | 0.256 | 0.0071 |
| CC1(C)CCC(CN2CCN(c3ccc(C(=O)NS(=O)(=O)c4ccc(NCC5CCOCC5)c([N+](=O)[O-])c4)c(Oc4cnc5[nH]ccc5c4)c3)CC2)=C(c2ccc(Cl)cc2)C1 [Venetoclax] + COc1cc(Nc2ncc3c(n2)-c2ccc(Cl)cc2C(c2c(F)cccc2OC)=NC3)ccc1C(=O)O [Alisertib] (first compound max 1 µM, 7x7, partner max 10 µM) | 0.809 | 0.639 | 0.89 | 0.689 | 0.709 | 0.177 | 0.632 | 0.795 | 0.379 | 0.892 | 0.303 | -0.0401 |
| CC1(C)CCC(CN2CCN(c3ccc(C(=O)NS(=O)(=O)c4ccc(NCC5CCOCC5)c([N+](=O)[O-])c4)c(Oc4cnc5[nH]ccc5c4)c3)CC2)=C(c2ccc(Cl)cc2)C1 [Venetoclax] + C[C@@H]1COCCN1C2=NC(=NC(=C2)C3(CC3)[S@](=N)(=O)C)C4=C5C=CNC5=NC=C4 [AZD6738] (first compound max 1 µM, 7x7, partner max 10 µM) | 0.809 | 0.827 | 0.929 | 0.425 | 0.797 | 0.53 | 0.91 | 0.707 | 0.875 | 0.892 | 0.815 | -0.0361 |
| CC1(C)CCC(CN2CCN(c3ccc(C(=O)NS(=O)(=O)c4ccc(NCC5CCOCC5)c([N+](=O)[O-])c4)c(Oc4cnc5[nH]ccc5c4)c3)CC2)=C(c2ccc(Cl)cc2)C1 [Venetoclax] + C[C@@H](Nc1cc(F)cc(F)c1)c1cc(C(=O)N(C)C)cc2c(=O)cc(N3CCOCC3)oc12 [AZD8186] (first compound max 1 µM, 7x7, partner max 3 µM) | 0.137 | 0.373 | 0.587 | 0.182 | 0.472 | 0.08 | 0.387 | 0.191 | 0.141 | 0.661 | 0.297 | -0.0428 |
| CC1(C)CCC(CN2CCN(c3ccc(C(=O)NS(=O)(=O)c4ccc(NCC5CCOCC5)c([N+](=O)[O-])c4)c(Oc4cnc5[nH]ccc5c4)c3)CC2)=C(c2ccc(Cl)cc2)C1 [Venetoclax] + Cc1cc2ncnn2cc1Nc1ncc2c(n1)n(C1CCOCC1)c(=O)n2C [AZD7648] (first compound max 1 µM, 7x7, partner max 10 µM) | 0.428 | 0.477 | 0.327 | 0.174 | 0.628 | 0.133 | 0.451 | 0.26 | 0.145 | 0.528 | 0.171 | -0.0068 |
| CC1(C)CCC(CN2CCN(c3ccc(C(=O)NS(=O)(=O)c4ccc(NCC5CCOCC5)c([N+](=O)[O-])c4)c(Oc4cnc5[nH]ccc5c4)c3)CC2)=C(c2ccc(Cl)cc2)C1 [Venetoclax] + Cn1cnc2c(F)c(Nc3ccc(Br)cc3Cl)c(C(=O)NOCCO)cc21 [Selumetinib] (first compound max 1 µM, 7x7, partner max 3 µM) | 0.367 | 0.415 | 0.319 | 0.466 | 0.377 | 0.378 | 0.568 | 0.0867 | 0.31 | 0.392 | 0.292 | -0.0404 |
